Reference: ChEMBL document CHEMBL3588817, “Discovery of 4,5,6,7-Tetrahydrobenzo[1,2-d]thiazoles as Novel DNA Gyrase Inhibitors Targeting the ATP-Binding Site” (J Med Chem, 2015)

Legend:
DNA gyrase = DNA gyrase (Escherichia coli, UniProt P0AES4+P0AES6); assay: Inhibition of Escherichia coli DNA gyrase using relaxed pNO1 plasmid and biotinylated oligonucelotide incubated for 30 mins by fluorescence based DNA super-coiling assay; type: protein-complex assay
Staphylococcus aureus [1] = assay: Antibacterial activity against Staphylococcus aureus 25923 assessed as inhibition of microbial growth by broth microdilution method; type: functional
Enterococcus faecalis [2] = assay: Antibacterial activity against Enterococcus faecalis ATCC 29212 assessed as inhibition of microbial growth at 50 uM by broth microdilution method; type: functional; conditions: read-out: GI
Enterococcus faecalis [3] = assay: Antibacterial activity against Enterococcus faecalis ATCC 29212 assessed as inhibition of microbial growth by broth microdilution method; type: functional
Staphylococcus aureus [4] = assay: Antibacterial activity against Staphylococcus aureus 25923 assessed as inhibition of microbial growth at 50 uM by broth microdilution method; type: functional; conditions: read-out: GI
Escherichia coli [5] = assay: Antibacterial activity against Escherichia coli imp4213::Tn10 by broth microdilution method; type: functional
Pseudomonas aeruginosa [6] = assay: Antibacterial activity against Pseudomonas aeruginosa ATCC 27853 assessed as inhibition of microbial growth at 50 uM by broth microdilution method; type: functional; conditions: read-out: GI
Escherichia coli [7] = assay: Antibacterial activity against wild type Escherichia coli ATCC 25922 assessed as inhibition of microbial growth at 50 uM by broth microdilution method; type: functional; conditions: read-out: GI
Pseudomonas aeruginosa [8] = assay: Antibacterial activity against Pseudomonas aeruginosa ATCC 27853 assessed as inhibition of microbial growth by broth microdilution method; type: functional
Escherichia coli [9] = assay: Antibacterial activity against efflux deficient Escherichia coli tolC::Tn10 lacking functional tolC gene by broth microdilution method
Escherichia coli [10] = assay: Antibacterial activity against wild type Escherichia coli ATCC 25922 by broth microdilution method; type: functional
Escherichia coli [11] = assay: Antibacterial activity against wild type Escherichia coli ATCC 25922 assessed as inhibition of microbial growth by broth microdilution method; type: functional
[12] = target: Topoisomerase IV (Staphylococcus aureus) (UniProt P0C1U9+P0C1S7); assay: Inhibition of Staphylococcus aureus DNA topoisomerase 4 assessed as residual enzyme activity at 100 uM using relaxed pNO1 plasmid and biotinylated oligonucelotide incubated for 30 mins by fluorescence based DNA relaxation assay; type: protein-complex assay
Escherichia coli [13] = assay: Inhibition of Escherichia coli DNA topoisomerase 4 assessed as residual enzyme activity at 100 uM using relaxed pNO1 plasmid and biotinylated oligonucelotide incubated for 30 mins by fluorescence based DNA relaxation assay
[14] = target: DNA gyrase (Staphylococcus aureus) (UniProt P0A0K8+P20831); assay: Inhibition of Staphylococcus aureus DNA gyrase assessed as residual enzyme activity at 100 uM using relaxed pNO1 plasmid and biotinylated oligonucelotide incubated for 30 mins by fluorescence based DNA super-coiling assay; type: protein-complex assay
DNA gyrase (Staphylococcus aureus), sequence (P0A0K8 2-644 limits assumed): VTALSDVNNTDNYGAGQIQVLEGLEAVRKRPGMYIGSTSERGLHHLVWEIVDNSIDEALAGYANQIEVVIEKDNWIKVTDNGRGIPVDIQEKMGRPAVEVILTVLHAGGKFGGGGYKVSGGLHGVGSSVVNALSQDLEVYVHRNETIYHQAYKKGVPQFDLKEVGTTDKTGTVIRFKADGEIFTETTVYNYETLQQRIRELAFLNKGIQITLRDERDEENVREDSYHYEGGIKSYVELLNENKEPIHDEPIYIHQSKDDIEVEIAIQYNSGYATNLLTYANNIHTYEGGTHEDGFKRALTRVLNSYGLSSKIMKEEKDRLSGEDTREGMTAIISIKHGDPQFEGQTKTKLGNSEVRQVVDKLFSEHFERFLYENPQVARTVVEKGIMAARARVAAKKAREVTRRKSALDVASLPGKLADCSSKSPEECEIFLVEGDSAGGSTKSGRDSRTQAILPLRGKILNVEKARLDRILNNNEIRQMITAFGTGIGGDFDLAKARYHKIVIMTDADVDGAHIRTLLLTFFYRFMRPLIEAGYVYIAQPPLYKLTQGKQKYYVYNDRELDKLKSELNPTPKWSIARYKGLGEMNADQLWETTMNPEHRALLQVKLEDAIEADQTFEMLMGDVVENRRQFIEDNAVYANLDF
DNA gyrase (Staphylococcus aureus), sequence (P20831 whole entry partner): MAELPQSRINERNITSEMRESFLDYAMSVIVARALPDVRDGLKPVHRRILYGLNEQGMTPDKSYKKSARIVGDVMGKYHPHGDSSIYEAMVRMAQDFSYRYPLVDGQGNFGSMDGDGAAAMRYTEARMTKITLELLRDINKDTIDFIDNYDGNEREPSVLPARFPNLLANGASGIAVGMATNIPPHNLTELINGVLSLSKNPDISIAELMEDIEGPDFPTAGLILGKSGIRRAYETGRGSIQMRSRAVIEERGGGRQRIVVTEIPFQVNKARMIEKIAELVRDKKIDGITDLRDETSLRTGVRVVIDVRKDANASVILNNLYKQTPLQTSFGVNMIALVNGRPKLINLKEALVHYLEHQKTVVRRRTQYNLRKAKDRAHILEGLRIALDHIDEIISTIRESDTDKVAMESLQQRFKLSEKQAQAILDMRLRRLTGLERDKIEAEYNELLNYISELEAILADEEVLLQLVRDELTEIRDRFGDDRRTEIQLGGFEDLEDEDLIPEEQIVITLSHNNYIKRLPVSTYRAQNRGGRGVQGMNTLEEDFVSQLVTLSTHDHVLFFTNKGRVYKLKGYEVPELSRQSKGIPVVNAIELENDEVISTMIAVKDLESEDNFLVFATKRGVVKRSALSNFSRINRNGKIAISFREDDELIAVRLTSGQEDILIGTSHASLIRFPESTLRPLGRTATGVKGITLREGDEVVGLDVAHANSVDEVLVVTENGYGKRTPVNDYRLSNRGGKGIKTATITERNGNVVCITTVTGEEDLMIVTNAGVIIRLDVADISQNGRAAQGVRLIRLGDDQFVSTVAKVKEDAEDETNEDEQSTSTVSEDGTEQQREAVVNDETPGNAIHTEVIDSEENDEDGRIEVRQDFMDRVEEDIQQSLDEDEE

| SMILES | IC50 (DNA gyrase) | MIC (Staphylococcus aureus [1]) | inhibition of growth at 50 µM (Enterococcus faecalis [2]) | MIC (Enterococcus faecalis [3]) | inhibition of growth at 50 µM (Staphylococcus aureus [4]) | MIC (Escherichia coli [5]) | inhibition of growth at 50 µM (Pseudomonas aeruginosa [6]) | inhibition of growth at 50 µM (Escherichia coli [7]) | MIC (Pseudomonas aeruginosa [8]) | MIC (Escherichia coli [9]) | MIC (Escherichia coli [10]) | MIC (Escherichia coli [11]) | Activity [12] | Activity (Escherichia coli [13]) | Activity [14] |
| --- | --- | --- | --- | --- | --- | --- | --- | --- | --- | --- | --- | --- | --- | --- | --- |
| Nc1nc2c(s1)C[C@@H](NC(=O)c1cc3cc(F)ccc3[nH]1)CC2 | 270 µM | > 125 µM | < 50% | > 125 µM | < 50% | > 256 µg/mL | < 50% | < 50% | > 125 µM | > 256 µg/mL | > 256 µg/mL | > 125 µM | – | – | – |
| Nc1nc2c(s1)C[C@@H](NC(=O)c1cc(Br)c[nH]1)CC2 | 520 µM | > 125 µM | < 50% | > 125 µM | < 50% | – | < 50% | < 50% | > 125 µM | – | – | > 125 µM | – | – | – |
| Nc1ncc2c(n1)CCC(CNC(=O)c1cc(Br)c(Br)[nH]1)C2 (stereo not drawn) | 170 µM | – | – | – | – | – | – | – | – | – | – | – | – | – | – |
| COC(=O)CCC(=O)Nc1nc2c(s1)C[C@@H](NC(=O)c1cc3ccccc3[nH]1)CC2 | 9.1 µM | > 125 µM | < 50% | > 125 µM | < 50% | – | < 50% | < 50% | > 125 µM | – | – | > 125 µM | 104% | 101% | 87% |
| CCOC(=O)C(=O)Nc1nc2c(s1)C[C@@H](NC(=O)c1cc3ccccc3[nH]1)CC2 | 10 µM | > 125 µM | < 50% | > 125 µM | < 50% | – | < 50% | < 50% | > 125 µM | – | – | > 125 µM | 99% | 101% | 76% |
| COC(=O)CC(=O)Nc1nc2c(s1)C[C@@H](NC(=O)c1cc(Br)c[nH]1)CC2 | 25 µM | > 125 µM | < 50% | > 125 µM | < 50% | – | < 50% | < 50% | > 125 µM | – | – | > 125 µM | 104% | 95% | 100% |
| COC(=O)CC(=O)Nc1nc2c(s1)C[C@@H](NC(=O)c1cc3ccccc3[nH]1)CC2 | 35 µM | > 125 µM | < 50% | > 125 µM | < 50% | > 256 µg/mL | < 50% | < 50% | > 125 µM | > 256 µg/mL | > 256 µg/mL | > 125 µM | – | – | – |
| O=C(O)CC(=O)Nc1nc2c(s1)C[C@@H](NC(=O)c1cc(Br)c[nH]1)CC2 | 14 µM | > 125 µM | < 50% | > 125 µM | < 50% | – | < 50% | < 50% | > 125 µM | – | – | > 125 µM | 97% | 96% | 110% |
| Nc1ncc2c(n1)CCC(NC(=O)c1cc(Cl)c(Cl)[nH]1)C2 (stereo not drawn) | 5.7 µM | – | – | – | – | – | – | – | – | – | – | – | 106% | 96% | 90% |
| O=C1CCN2C(=N1)SC1=C2CC[C@H](NC(=O)c2cc(Br)c(Br)[nH]2)C1 | 12 µM | > 125 µM | < 50% | > 125 µM | < 50% | > 256 µg/mL | < 50% | < 50% | > 125 µM | > 256 µg/mL | > 256 µg/mL | > 125 µM | – | – | – |
| Nc1nc2c(s1)CC(CNC(=O)c1cc(Br)c(Br)[nH]1)CC2 (stereo not drawn) | 120 µM | – | – | – | – | – | – | – | – | – | – | – | – | – | – |
| Nc1nc2c(s1)C[C@@H](NC(=O)c1cc3ccccc3[nH]1)CC2 | 21 µM | – | – | – | – | – | – | – | – | – | – | – | 100% | 103% | 87% |
